# Measurements as given in US8067015B2, “Methods and compositions for the treatment and prevention of Staphylococcus and other bacterial infections” (priority 1997, dated 2011).
# Where two headings read alike, the source gives them in different places. Where no end group is shown, it is not given here.
# What was measured:
# [1] = tested on: S. epidermidis MSSE strain; assay: Rat subcutaneous Dacron graft infection model, MSSE strain; type: in vivo; details: for Bacterial concentration, MSSE: 2×10^7 bacteria, explanted day 7; for Bacterial concentration, MSSE / Bacterial load on graft, MSSE: mean ± SD; for Bacterial load on graft, MSSE: Table 3A S. epidermidis
# Protocol: (§1) Rats (Wistar adult males (300-350 g), n=15/experimental group) were anaesthetized, hair on their back shaved and the skin cleansed with 10% povidone-iodine solution. A subcutaneous pocket was made on the side of the median line by a 1.5 cm incision. Aseptically, 1 cm^2 sterile collagen-sealed Dacron graft (Albograft™, Sorin Biomedica Cardio, S.p.A., Saluggi VC, Italy) was implanted into the pocket. […] Pockets were closed by skin clips and 1 ml sterile saline solution with or without 2×10^7 bacteria was inoculated onto the graft surface using a tuberculin syringe to create a subcutaneous fluid-filled pocket. Some of the animals that had grafts soaked only with RIP or saline were injected intraperitoneally with antibiotics (cefazolin 30 mg/kg, imipenem 30 mg/kg, teicoplanin 10 mg/kg, levofloxacin 10 mg/kg). Grafts were explanted 7 days following implantation.
# (§2) The explanted grafts were placed in sterile tubes, washed in sterile saline solution, placed in tubes containing 10 ml of phosphate-buffered saline solution and sonicated for 5 min to remove the adherent bacteria from the grafts. Quantitation of viable bacteria was performed by culturing serial 10-fold dilutions (0.1 ml) of the bacterial suspension on blood agar plates. All plates were incubated at 37° C. for 48 hr and evaluated for the presence of the strain. Bacteria were quantitated by counting the number of colony forming unites (CFU) per plate. To determine if bacteria were efficiently removed from the graft, washed and sonicated grafts were observed under a Nikon Eclipse E 600 optical microscope (Nikon Y-THS, Japan).
# Quantitative culture results of the in vivo experiments were presented as mean+SD of the mean. Comparisons of the results were performed by the analysis of variance (ANOVA) on the log-transformed data. Statistical analysis was performed for in vitro adhesion assays using Student's t-Test by Microsoft Excel (Microsoft, Wash.). Significance was accepted when the P value was <0.05.
# To test if RIP can prevent graft-associated infections, Dacron grafts were coated with or without RIP, and with or without various types of antibiotics (for local prophylaxis experiments). Coated grafts were implanted in rats, bacteria injected into the implants, implants removed after a week, and bacterial load determined. Alternatively, Dacron grafts were first coated with RIP, bacteria injected, and antibiotics were administered by the intraperitoneal route (for parenteral prophylaxis experiments). As a negative control, grafts were implanted without local or parenteral RIP/antibiotics prophylaxis and no bacteria were injected. As a positive control, grafts were implanted, bacteria were injected, but no RIP/antibiotics prophylaxis was given.
# Animals (15/group) received a Dacron-graft implanted in a subcutaneous pocket. Graft was subsequently infected with either S. epidermidis (tested on MSSE, MRSE and GISE) or with S. aureus (tested on MSSA, MRSA and GISA). […]
# [2] = tested on: S. epidermidis (all strains tested); assay: Rat subcutaneous Dacron graft infection model, all strains tested (GISE, MRSE, MSSE); type: in vivo; details: RIP-coated graft
# Protocol: as §1, with “Some of the animals that had grafts soaked only with RIP or saline were injected intraperitoneally with antibiotics (cefazolin 30 mg/kg, imipenem 30 mg/kg, teicoplanin 10 mg/kg, levofloxacin 10 mg/kg). Grafts were explanted 7 days following implantation.” left out
# as §2, with “To determine if bacteria were efficiently removed from the graft, washed and sonicated grafts were observed under a Nikon Eclipse E 600 optical microscope (Nikon Y-THS, Japan).” left out
# Quantitative culture results of the in vivo experiments were presented as mean+SD of the mean. […]
# [3] = tested on: TRAP; details: 1 hr
# Protocol: S. aureus (right panel) and S. epidermidis (left panel) were in vivo phosphorylated for 1 hr in the presence or absence of RIP. Total cell homogenate was separated by SDS PAGE and the gel was autoradiographed.
# To test for TRAP phosphorylation in S. epidermidis, in vivo phosphorylation assays were carried out as described for S. aureus. Briefly, early exponential S. epidermidis were grown in the presence of phosphate-free buffer supplemented with radiolabeled orthophosphate with or without RIP (10 μg/10^7 cells). After a 1 hr incubation period, the cells were collected by centrifugation, treated with lysostaphin followed by the addition of sample buffer, and total cell homogenate was applied without boiling to 15% SDS PAGE and the gel autoradiographed. The same experiment was carried out on 6390B S. aureus cells as a positive control.
# [4] = tested on: S. epidermidis adherence to HaCat cells; assay: Adherence of FITC-labeled S. epidermidis to HaCat cells; type: cell-based; details: 5 μg RIP, 10^6 CFU, 30 min at 37° C.
# Protocol: FIG. 14A is a graph depicting adherence in the presence of RIP (RIP+) and in the absence of RIP (RIP−). FITC-labeled bacterial cells (10^6 CFU) were applied to microtiter plates containing confluent 10^4 HaCat cells, in the presence or absence of 5 μg RIP (RIP+/−). Cells were incubated for 30 min at 37° C., washed in PBS and fluorescence at 485/530 nm was determined.
# Virulence of S. epidermidis is also often associated with their ability to adhere to host cells and to form biofilm on medical devices. To test whether RIP can prevent S. epidermidis from colonizing host cells and therefore be a candidate for therapy and prevention, FITC-labeled S. epidermidis were incubated in the presence or absence of RIP with a confluent layer of keratinocytes (HaCat cells) for 30 min.
# [5] = tested on: S. epidermidis adherence to polystyrene; assay: Adherence and biofilm formation of S. epidermidis on polystyrene (safranin); type: cell-based; details: polystyrene microtiter plates, 3 hrs
# Protocol: FIG. 14B is a graph depicting adherence in the presence of RIP RIP+ and in the absence of RIP RIP−. S. epidermidis were grown in polystyrene plates for 3 hrs, adherent bacteria were stained by safranin, and absorbance at 490 nm was determined.
# To test whether RIP reduces adherence and biofilm formation of S. epidermidis to plastic, early exponential S. epidermidis were grown for 3 hrs in microtiter plates made of polystyrene, and adherent cells were stained with safranin. These experimental conditions allow for biofilm to be formed (as observed by atomic force microscopy, not shown).
# [6] = tested on: RNAIII; details: cited from earlier work
# [7] = tested on: S. aureus LS-1; details: mice; cited from earlier work
# [8] = tested on: S. aureus MS; details: rabbits; cited from earlier work
# [9] = tested on: S. aureus Newbould 305, AE-1, and environmental infections; details: cows; cited from earlier work
substance,measurement,setting,value
YSPWTNF(—NH2) (YSPWTNF-NH2) [RIP],"Bacterial concentration, MSSE","[1]; A. Local prophylaxis: graft soaked 20 min in RIP 10 mg/l and/or antibiotic (mupirocin 100, quinupristin-dalfopristin 50, levofloxacin 30, rifampin 5 mg/l), rats",0.91 ± 0.23 ×10^4 CFU/ml
same,"Bacterial concentration, MSSE","[1]; B. Parenteral prophylaxis: antibiotic intraperitoneally (cefazolin 30, imipenem 30, teicoplanin 10, levofloxacin 10 mg/kg), RIP as 10 mg/l graft soak, rats",0.91 ± 0.23 ×10^4 CFU/ml
same,"Bacterial load on graft, MSSE",[1]; RIP local (graft soaked in 20 mg/l RIP),0.08 ± 0.024 ×10^4 CFU/ml
same,"Bacterial load on graft, MSSE",[1]; RIP local + RIP parenteral,0.00 ± 0 ×10^4 CFU/ml
same,"Bacterial load on graft, MSSE",[1]; RIP parenteral (10 mg/l RIP i.p.),0.067 ± 0.019 ×10^4 CFU/ml
same,"Quantitative culture results of explanted graft, MSSE strain","[1]; peptide-soaked/coated Dacron graft (RIP 10 mg/l), no antibiotic, rats, day 7",9.1×10^3±2.3×10^3 CFU/ml
same,Reduction of bacterial load,[2],3 log
same,TRAP phosphorylation,"[3]; RIP 10 μg/10^7 cells, S. epidermidis",can be inhibited
same,TRAP phosphorylation,"[3]; in presence or absence of RIP, S. aureus",inhibits TRAP phosphorylation
same,S. epidermidis adherence to HaCat cells,[4],significantly (p<0.05) reduced
same,Number of cells that adhered to the plastic,[5],significantly reduced
same,Inhibiting RNAIII in vitro,[6],extremely effective
same,Suppressing S. aureus infection: septic arthritis,[7],extremely effective
same,Suppressing S. aureus infection: osteomyelitis,[8],extremely effective
same,Suppressing S. aureus infection: mastitis,[9],extremely effective
